Results taken from US11987582B2, “Maleate salts of triazolopyrazine derivatives, compositions, methods of use, and processes of manufacturing the same” (ABION Inc, priority 2021, dated 2024).
Where two headings read alike, the source gives them in different places.

What was measured:
[1] = PK parameters in plasma after single administration; type: in vivo, Wistar rats; details: for AUC(0-inf) / AUC(0-t) / Cmax / Tmax: Wistar, rat, plasma
[2] = thermodynamic solubility in formulation vehicles (phosphate buffer pH 7.4 with excipients); type: physicochemical; details: thermodynamic from solid
Procedure: In view of developing a formulation suitable for parenteral administration, the quantitative solubility of Chemical Formula land the Chemical Formula 2 were determined in phosphate buffer pH 7.4, supplemented with solubility-enhancing excipients. The target concentration is 1-1.3 mg/mL.
Based on the qualitative solubility result determined for the PBS formulation vehicle containing Transcutol (Gattefossé, France) and TPGS (tocopherol polyethylene glycol succinate), the quantitative solubility of the compound of Chemical Formula 1 and the compound of Chemical Formula 2 was determined in those vehicles to assess the maximum solubility in those vehicles. The thermodynamic solubility was then determined in PBS buffer containing Transcutol (50% and 10%) and TPGS (20% and 10%) and also in the formulation vehicles containing PEG 400 (50%, with and without presence of 2% DMSO). Suspensions of the compound of Chemical Formula 1 and the compound of Chemical Formula 2 were prepared in the selected vehicles with a compound of Chemical Formula 1 concentration of about 3.5-5 mg/mL. After incubation for 24 hours at room temperature, the solids and liquid phases were separated. The concentration of API in solution was determined by HPLC analysis. The results can be found in FIG. 6.

[3] = long-term stability study, chemical purity by HPLC; type: physicochemical; details: up to 15 months, in words
Procedure: The physical and chemical stability study was performed on the compounds of Chemical Formula 2 and Chemical Formula 1 (for reference purposes). The long-term stability study was conducted at defined temperatures and relative humidity levels (25° C./60% relative humidity (RH) and 40° C./75% RH). At regular intervals, a solid sample was analyzed by XRPD, TGMS and HPLC.
The results of the chemical purity determination for the compounds of Chemical Formula 1 and Chemical Formula 2 after 1-, 3- and 15-month exposure to 25° C./60% RH and 40° C./75% RH is presented in FIGS. 4 and 5.

[4] = PK parameters after bid (twice a day) administration; type: in vivo; details: for Cmax1 / Tmax1: after first daily dosing; for Cmax2 / Tmax2: after second daily dosing; for AUC / AUC(0-t): in vivo; for AUC: read-out: AUC(12-24 h)
Source text: FIG. 10 and Table 4 show the PK properties of the compound of Chemical Formula 2 administered twice a day (bid).
FIG. 11 and Table 5 show the PK properties of the compound of Chemical Formula 1 administered twice per day.

[5] = system: lung cancer cell line EBC-1; assay: cancer cell proliferation inhibitory experiment (SRB); type: cell-based, human; details: EBC-1 cell line
Procedure: The following exemplary experimental protocol was performed to test the activity of the maleate salt compounds described herein.
An RPMI 1640 cell culture medium, fetal bovine serum (FBS) and trypsin were purchased from GIBCO Co., Ltd. (Grand Island, N.Y.), and sodium hydrogencarbonate, amphotericin B and gentamycin were used as signamic medical products. In addition, reagents such as sulforhodamine (SRB) B, Trisma Base, and trichloroacetic acid (TCA), which were reagents used in a cytotoxicity measurement experiment, were purchased from Sigma Chemical Co., Ltd. For MTS analysis, a Celltiter 96 Aqueous Non-Radioactive Cell Proliferation Assay product was purchased from Promega Co., Ltd. Further, a T-25 culture container used for cell culture, a 96-well plate and other disposable glass used for cell culture were obtained from Folkon (Lincoln Park, N.J.) products.
A drug used in the experiment was diluted as an experimental medium to a desired concentration in the test, and the final dimethylsulfoxide concentration was 0.5% or less.
Cancer cell lines used in the experiment were human-derived cancer cell lines, and a lung cancer cell line EBC-1. RPMI 1640 medium with 10% fetal bovine serum (FBS) was used and cultured in an incubator of 37° C. and 5% CO2 and subcultured once by 3 to 4 days.
Specifically, after the culture with the compound of the present disclosure was terminated, the culture solution was removed, and a cold TCA solution added to each well. The cells were left at 4° C. for 1 hour to be fixed. The TCA solution was removed, and the cells were dried at room temperature, incubated with a solution obtained by dissolving 0.4% SRB in a 1% acetic acid solution, left at room temperature for 30 minutes, and then stained. Extra SRB which was not bound to the cells was washed with a 1% acetic acid solution, and the SRB was eluted by adding a […] tris buffer solution (trisma base; unbuffered) of pH 10.3 to 10.5 to the stained cells.

## CN1CCN(Cc2ccc(-c3cnc(N4CCOC(Cn5nnc6ncc(-c7cnn(C)c7)nc65)C4)nc3)cc2)CC1 (stereo not drawn) [Chemical Formula 1]
[1]; 5 mg/kg IV
  AUClast/Dose: 1410 kg·nM·h/mg
  AUC∞/Dose: 1440 kg·nM·h/mg
  Cl: 0.000705 mg/h/nM/kg
  Vss: 0.00347 mg/nM/kg
  Vz: 0.00471 mg/nM/kg
  AUC(0-inf): 7.2 µM·h
  AUC(0-t): 7.06 µM·h
[1]; 5 mg/kg PO
  AUClast/Dose: 551 kg·nM·h/mg
  AUC∞/Dose: 562 kg·nM·h/mg
  F: 39.0%
  AUC(0-inf): 2.81 µM·h
  AUC(0-t): 2.75 µM·h
  Cmax: 343 nM
  Tmax: 4 h
[1]; 20 mg/kg PO
  AUClast/Dose: 488 kg·nM·h/mg
  AUC∞/Dose: 504 kg·nM·h/mg
  F: 35.0%
  AUC(0-inf): 10.1 µM·h
  AUC(0-t): 9.76 µM·h
  Cmax: 1080 nM
  Tmax: 4 h
[2]; PBS formulation vehicle with 10% TPGS, pH 7.4, aqueous with cosolvent or surfactant or cyclodextrin, PBS vehicle containing 10% TPGS, 24 hours at room temperature
  solubility at 24 h: ≥ 1000 µg/mL
[2]; PBS formulation vehicle with 10% Transcutol, pH 7.4, aqueous with cosolvent or surfactant or cyclodextrin, PBS vehicle with only 10% Transcutol, 24 hours at room temperature
  solubility at 24 h: ~100 µg/mL
[2]; PBS formulation vehicle with 20% TPGS, pH 7.4, aqueous with cosolvent or surfactant or cyclodextrin, PBS vehicle containing 20% TPGS, 24 hours at room temperature
  solubility at 24 h: ≥ 1000 µg/mL
[2]; PBS formulation vehicle with 50% Transcutol, pH 7.4, aqueous with cosolvent or surfactant or cyclodextrin, PBS vehicle containing 50% Transcutol, 24 hours at room temperature
  solubility at 24 h: ≥ 1000 µg/mL
[2]; formulation vehicles containing PEG 400, pH 7.4, aqueous with cosolvent or surfactant or cyclodextrin, vehicles containing PEG 400, 24 hours at room temperature
  solubility at 24 h: ~300 µg/mL
[3]; 25° C./60% RH
  chemical degradation: partial chemical degradation
[3]; 40° C./75% RH
  chemical degradation: more degradation
[4]; 5 mg/kg IV (10 mg/kg/day)
  AUC(0-12 h)/Dose: 1070 kg·nM·h/mg
  AUC(12-24 h)/Dose: 1480 kg·nM·h/mg
  AUClast/Dose: 1410 kg·nM·h/mg
  Cl: 0.000733 mg/h/nM/kg
  Vss: 0.0076 mg/nM/kg
  Vz: 0.00265 mg/nM/kg
  AUC: 7.38 µM·h
[4]; 5 mg/kg PO (10 mg/kg/day)
  AUC(0-12 h)/Dose: 487 kg·nM·h/mg
  AUC(12-24 h)/Dose: 490 kg·nM·h/mg
  AUClast/Dose: 488 kg·nM·h/mg
  F: 34.6%
  Cmax1: 564 nM
  Tmax1: 3-4$ h
  Cmax2: 488 nM
  Tmax2: 13-14$ h
  AUC: 2.45 µM·h
[4]; 20 mg/kg PO (40 mg/kg/day)
  AUC(0-12 h)/Dose: 395 kg·nM·h/mg
  AUC(12-24 h)/Dose: 313 kg·nM·h/mg
  AUClast/Dose: 318 kg·nM·h/mg
  F: 22.6%
  Cmax1: 821 nM
  Tmax1: 1-3$ h
  Cmax2: 1000 nM
  Tmax2: 12.083-16$ h
  AUC: 6.26 µM·h
[4]; iv, 5 mg/kg, 5 mg/kg IV (10 mg/kg/day), read-out: AUC(0-12 h)
  AUC(0-t): 5.36 µM·h
[4]; iv, 5 mg/kg, 5 mg/kg IV (10 mg/kg/day), read-out: AUClast
  AUC(0-t): 14.1 µM·h
[4]; po, 5 mg/kg, 5 mg/kg PO (10 mg/kg/day), read-out: AUC(0-12 h)
  AUC(0-t): 2.44 µM·h
[4]; po, 5 mg/kg, 5 mg/kg PO (10 mg/kg/day), read-out: AUClast
  AUC(0-t): 4.88 µM·h
[4]; po, 20 mg/kg, 20 mg/kg PO (40 mg/kg/day), read-out: AUC(0-12 h)
  AUC(0-t): 7.9 µM·h
[4]; po, 20 mg/kg, 20 mg/kg PO (40 mg/kg/day), read-out: AUClast
  AUC(0-t): 12.7 µM·h
[5]
  GI50: 8.17 nM
